# Assay results from ChEMBL document CHEMBL1128005, “Piperidine-ether based hNK1 antagonists 1: Determination of the relative and absolute stereochemical requirements” (Bioorg Med Chem Lett, 1994).
# Biological target: Substance-P receptor (Homo sapiens, UniProt P25103)
# Assay: Compound was tested for the displacement of […] Substance P from hNK1 receptor in CHO cells
# Format: cell-based
# Chain of Substance-P receptor (P25103 whole entry): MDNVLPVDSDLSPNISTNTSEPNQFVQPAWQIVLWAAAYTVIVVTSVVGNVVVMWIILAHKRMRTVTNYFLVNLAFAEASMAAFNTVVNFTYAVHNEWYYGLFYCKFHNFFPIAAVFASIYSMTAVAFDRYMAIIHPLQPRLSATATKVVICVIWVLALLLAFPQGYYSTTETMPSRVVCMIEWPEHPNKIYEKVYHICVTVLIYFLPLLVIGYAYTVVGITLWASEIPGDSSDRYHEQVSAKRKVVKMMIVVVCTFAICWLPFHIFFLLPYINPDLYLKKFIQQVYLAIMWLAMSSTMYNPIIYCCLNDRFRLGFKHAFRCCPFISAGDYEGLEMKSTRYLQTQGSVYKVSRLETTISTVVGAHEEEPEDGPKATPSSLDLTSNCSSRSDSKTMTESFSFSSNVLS
row,Compound,IC50
1,FC(F)(F)c1cc(CO[C@H]2CCCN[C@@H]2c2ccccc2)cc(C(F)(F)F)c1,0.3 µM
2,FC(F)(F)c1cc(CO[C@H]2CCN[C@H]2c2ccccc2)cc(C(F)(F)F)c1 (racemic),0.007 µM
3,FC(F)(F)c1cc(CO[C@@H]2CCCN[C@@H]2c2ccccc2)cc(C(F)(F)F)c1 (stereo in doubt),0.35 µM
4,FC(F)(F)c1cc(CO[C@@H]2CCCN[C@@H]2c2ccccc2)cc(C(F)(F)F)c1 (stereo in doubt; (+/-)2),0.0014 µM
